In brackets after ≈: the same amount, converted by molar mass. Where two headings read alike, the source gives them in different places. Marks after values point to notes of the source that are not given here.
Key:
[1] = test system: Streptococcus pneumoniae (ATCC 700675); experiment: MIC assay against Streptococcus pneumoniae; type: cell-based; settings: ATCC700675, read-out: MIC S. pneumonia
in vitro = settings: simulated gi fluid
Procedure: Assay incubation conditions included […] simulated gastric fluid (SGF, USP 39 Test Solution; 2 g/L NaCl, 7 mL/L glacial HCl, pH 1.4) containing 1.75 mg/mL Pepsin (3200-4500 U/mg) mixed with 7.5 μL of 10 mg/mL variant (or positive control, NH2-Met-Arg-Phe-Ala-OH, MRFA, CAS#67368-29-0) for a final concentration of 300 μg/ml variant in a microfuge tube. Samples were incubated at 37° C. and analyzed using HPLC or LC-MS for loss of substrate. The percent remaining, elimination rate constant (Ke), and in vitro protein half-lives were calculated. A control of SGF without enzyme was also run and analyzed in the same manner for each variant.

[2] = test system: Clostridium difficile UNT103-1; experiment: Non-cannulated Syrian hamster C. difficile infection model, oral gavage; type: in vivo, Golden Syrian hamsters
Procedure: (§1) Following the recovery phase, male Golden Syrian hamsters were inoculated with Clostridium difficile UNT103-1 (VA11, non epidemic (cdtB-, REA group J) Curtis Donskey, Cleveland VA Hospital, Cleveland, Ohio). On Day 1, at 24 hrs after infection, all animals received a single subcutaneous injection of clindamycin (10 mg/kg). Test article formulations were administered three times per day (TID), starting on Day 2 at 18 hours after Clindamycin injection, for 5 consecutive days (Days 2 through 6), and followed until Day 22 to assess recurrence. Vancomycin (positive control) was administered once a day at 20 mg/kg on Days 2 through 6. Cecal spore counts and Toxins A and B were determined as described above

[3] = test system: Clostridium difficile UNT103-1; experiment: Second non-cannulated Syrian hamster C. difficile infection model, oral gavage dose range-finding; type: in vivo, Golden Syrian hamsters
Procedure: as §1, with “formulated at 3 to 5 different doses” for “formulations”, “above.” for “above”

[4] = simulated gi fluid
[5] = test system: VRE Enterococcus faecalis
VRE Enterococcus faecium [6] = test system: VRE Enterococcus faecium
[7] = test system: Clostridium scindens (ATCC 35704)
[8] = test system: Lactobacillus acidophilus (CCUG 4356)
[9] = test system: Peptostreptococcus anaerobius (ATCC 27337)
[10] = test system: Eggerthella lenta (ATCC 27337)
[11] = test system: VRE Enterococcus faecalis; experiment: organism not typed
VRE Enterococcus faecium [12] = experiment: organism not typed; settings: read-out: MIC VRE ATCC 700221, strain ATCC 700221
[13] = test system: Eggerthella lenta (ATCC 27337); experiment: microbe, parasite or virus in culture; settings: ATCC27337, read-out: MIC E. lenta
Pseudomonas aerigunosa = experiment: MIC against Gram negative P. aeruginosa; type: cell-based, Pseudomonas aeruginosa
Procedure: A minimum inhibitory concentration (MIC) assessment against Pseudomonas aerigunosa (a Gram negative bacterium) was performed for single site variants in the broth dilution assay as described by the CLSI (CLSI document M07-A8). Samples and Ofloxacin control were dissolved and serially diluted in 100% DMSO and 4 μL was added per well to 96-well plate with 196 μL of Cation Adjusted Mueller Hinton II Broth seeded with P. aeruginosa. […] The assay plates were loosely wrapped in a plastic bag and incubated 20-24 hours at 36° C. (aerobic conditions) and then visually examined and scored positive (+) for inhibition of growth or turbidity or negative (−) for no effect upon growth or turbidity.

Staphylococcus aureus = experiment: MIC assay against Staphylococcus aureus; type: cell-based
[14] = 35 mg/Kg oral gavage TID, limit of detection 0.8

CC1(C)S[C@@H]2[C@H](NC(=O)[C@H](N)c3ccccc3)C(=O)N2[C@H]1C(=O)O [Ampicillin]
MIC [1]: 1 µg/mL (≈ 2.86 µM)

C=C1NC(=O)[C@H](Cc2c[nH]c3ccccc23)NC(=O)[C@H](NC(=O)[C@H](CCCCN)NC(=O)[C@@H](N)C(C)C)CSC[C@@H](C(=O)N[C@H]2C(=O)N3CCC[C@H]3C(=O)NCC(=O)N[C@H](C(=O)N[C@@H](C)C(=O)N[C@@H](CC(N)=O)C(=O)N/C(=C\C)C(=O)NCC(=O)N[C@@H]3CSC[C@@H]4NC(=O)[C@H](Cc5ccc(O)cc5)NC(=O)[C@@H](CS/C=C\NC4=O)NC(=O)[C@H](CC(N)=O)NC(=O)[C@H](Cc4ccccc4)NC3=O)CS[C@H]2C)NC(=O)[C@H](CC(C)C)NC1=O [F1V R13N]
half-life (in vitro): > 24 h | Efficacy compared with Vancomycin-treated animals ([2]; end of the study at Day 22, oral gavage, in words): equal or superior efficacy | Percent Survival at Day-22 ([2]; oral gavage TID Days 2-6, vancomycin 20 mg/kg once a day): 100% | Toxin A level at Day-22 ([2]; oral gavage, first value of A/B cell, limit of detection 0.8): 0.8/0.8** ng/mL | Mean LOG10 CFU/mL of feces homogenates (cecal spore counts) at Day-22 ([2]; oral gavage, limit of detection 2.40): 2.4* LOG10 CFU/mL | Toxin B level at Day-22 ([2]; oral gavage, second value of A/B cell, limit of detection 0.8): 0.8/0.8** ng/mL | Mean LOG10 CFU/mL of feces homogenates (cecal spore counts) at Day-22 ([3]; 2 mg/Kg oral gavage TID): 6.13 LOG10 CFU/mL | Toxin A level at Day-22 ([3]; 2 mg/Kg oral gavage TID): 578.5 ng/mL | Toxin B level at Day-22 ([3]; 2 mg/Kg oral gavage TID): 462.7 ng/mL | Percent Survival at Day-22 ([3]; 2 mg/Kg oral gavage TID Days 2-6): 0% | Mean LOG10 CFU/mL of feces homogenates (cecal spore counts) at Day-22 ([3]; 6 mg/Kg oral gavage TID): 4.27 LOG10 CFU/mL | Toxin A level at Day-22 ([3]; 6 mg/Kg oral gavage TID): 266.2 ng/mL | Toxin B level at Day-22 ([3]; 6 mg/Kg oral gavage TID): 238.1 ng/mL | Percent Survival at Day-22 ([3]; 6 mg/Kg oral gavage TID Days 2-6): 50% | Mean LOG10 CFU/mL of feces homogenates (cecal spore counts) at Day-22 ([3]; 20 mg/Kg oral gavage TID): 3.88 LOG10 CFU/mL | Toxin A level at Day-22 ([3]; 20 mg/Kg oral gavage TID): 74.2 ng/mL | Toxin B level at Day-22 ([3]; 20 mg/Kg oral gavage TID): 57.8 ng/mL | Percent Survival at Day-22 ([3]; 20 mg/Kg oral gavage TID Days 2-6): 66% | Percent Survival at Day-22 ([3]; 35 mg/Kg oral gavage TID Days 2-6): 100% | Toxin A level at Day-22 [3, 14]: 0.8/0.8** ng/mL | Toxin B level at Day-22 [3, 14]: 0.8/0.8** ng/mL | Mean LOG10 CFU/mL of feces homogenates (cecal spore counts) at Day-22 ([3]; 35 mg/Kg oral gavage TID, limit of detection 2.40): 2.40* LOG10 CFU/mL | Mean LOG10 CFU/mL of feces homogenates (cecal spore counts) at Day-22 ([3]; 60 mg/Kg oral gavage TID): 2.51 LOG10 CFU/mL | Toxin A level at Day-22 ([3]; 60 mg/Kg oral gavage TID): 7.3 ng/mL | Toxin B level at Day-22 ([3]; 60 mg/Kg oral gavage TID): 5.5 ng/mL | Percent Survival at Day-22 ([3]; 60 mg/Kg oral gavage TID Days 2-6): 83% | Efficacy compared with Vancomycin-treated animals at the same dose ([3]; end of the study at Day 21, ascending dose regimen, in words): superior efficacy | half-life ([4]; FaSSIF + 1% pancreatin + 3 μg/ml trypsin + 3 μg/ml chymotrypsin half-life): > 12 h | half-life ([4]; FaSSIF only half-life): > 12 h | MIC VRE ATCC 51575 ([5]; VRE): 32 µg/mL (≈ 14.7 µM) | MIC VRE CCUG 47775 ([5]; VRE): 32 µg/mL (≈ 14.7 µM) | MIC VRE ATCC 700221 (VRE Enterococcus faecium [6]): 16 µg/mL (≈ 7.36 µM) | MIC C. scindens [7]: 4 µg/mL (≈ 1.84 µM) | MIC L. acidophilus [8]: 0.5 µg/mL (≈ 0.23 µM) | MIC P. anaerobius [9]: 0.25 µg/mL (≈ 0.115 µM) | MIC E. lenta [10]: 0.5 µg/mL (≈ 0.23 µM) | MIC to H. Pylori without EDTA (Heliobacter pylori): 8 µg/mL (≈ 3.68 µM) | MIC to H. Pylori with 0.05M EDTA (Heliobacter pylori; with 0.05M EDTA): 8 µg/mL

CC(=O)NC[C@H]1CN(c2ccc(N3CCOCC3)c(F)c2)C(=O)O1 [Linezoid, Linezolid]
MIC VRE ATCC 51575 ([5]; strain ATCC 51575, multi-site variants): 2 µg/mL (≈ 5.93 µM) | MIC ([11]; read-out: MIC VRE ATCC 51299): 2 µg/mL (≈ 5.93 µM) | MIC ([11]; read-out: MIC VRE ATCC 51575): 2 µg/mL (≈ 5.93 µM) | MIC ([11]; read-out: MIC VRE CCUG 47775): 2 µg/mL (≈ 5.93 µM) | MIC (VRE Enterococcus faecium [12]; multi-site variants): 4 µg/mL (≈ 11.9 µM) | MIC (VRE Enterococcus faecium [12]; single site variants): 2 µg/mL (≈ 5.93 µM) | MIC [13]: 1 µg/mL (≈ 2.96 µM)

CC1COc2c(N3CCN(C)CC3)c(F)cc3c(=O)c(C(=O)O)cn1c23 (stereo not drawn) [Ofloxacin]
MIC (Pseudomonas aerigunosa): 1 µg/mL (≈ 2.77 µM)

Gentamicin
MIC S. aureus ATCC 19636 (Staphylococcus aureus; strain ATCC 19636): 0.125 µg/mL | MIC S. aureus ATCC 29213 (Staphylococcus aureus; strain ATCC 29213): 0.25 µg/mL | MIC SS. aureus ATCC 33591 (Staphylococcus aureus; strain ATCC 33591): 1 µg/mL | MIC S. aureus BAA-1717 (Staphylococcus aureus; strain BAA-1717): 0.25 µg/mL

From US20190315814A1, “LANTIBIOTIC VARIANTS AND USES THEREOF” (priority 2016, published 2019)
